Experimental data: US11026932B2, “Medicinal composition for preventing or treating inflammatory respiratory disease” (NATIONAL UNIVERSITY CORPORATION OKAYAMA UNIVERSITY, priority 2015, dated 2021)

Columns and labels:
[1] = compared to a known RXR full agonist; cited from earlier work
[2] = tested on: bronchial asthma model mice; assay: Bronchial asthma model mice (OVA sensitization and inhaled OVA exposure), evaluation of drug efficacy; assay type: in vivo, female BALB/c mice; conditions: compared with the untreated group
Procedure: <Preparation of Bronchial Asthma Mice and Evaluation of Drug Efficacy>
Bronchial asthma mice were prepared and used for evaluation of drug efficacy in accordance with the following procedures.
Female BALB/c mice were systemically sensitized by intraperitoneal administration of ovalbumin (OVA) ([…] of OVA emulsified in 2.25 mg aluminum hydroxide in a total volume of 100 μL) on Day 0 and Day 14, and then was exposed to inhaled OVA by an ultrasonic nebulizer (for 20 min, 3 days: Days 28 to 30), to induce asthma reaction.
From Day 25, the mice were fed with a food containing an RXR agonist (NEt-4IB). On Day 32, the mice underwent tracheotomy under anesthesia by pentobarbital administration, followed by insertion of an endotracheal tube. After the tube was connected to a respiratory function measuring equipment, an airway hyperreactivity (airway resistance) was determined for evaluating airway constriction.
Forty eight hours after the last OVA inhalation exposure, airway hyperreactivity in the mice with an endotracheal tube was measured using a respiratory function measuring equipment (Flexivent, SIREQ Inc.). Here, airway hyperreactivity was induced by inhalation of methacholine.
After the procedure 2, the mice were euthanized by exsanguination. After bronchoalveolar lavage, a lung tissue was removed for evaluating an airway tissue.
Also, for a group fed with a common food as an untreated group, an asthma reaction was induced in the same way for determination of airway hyperreactivity and evaluation of airway inflammation.
Two groups which were not sensitized by an OVA and only exposed to inhaled OVA as non-asthma control groups (an RXR agonist medicated feed group and a common feed group) were also evaluated for airway hyperreactivity and airway inflammation in the same way.
The data obtained was analyzed by Anova significance test, in which p<0.01 and p<0.05 to an untreated non-asthma group were indicated by “**” and “*”, respectively. Furthermore, P<0.05 to an untreated asthma group was indicated by “#”.

emphysema model mice = assay: Emphysema model mice (intratracheal swine pancreatic elastase), evaluation of drug efficacy; assay type: in vivo, female BALB/c mice
Procedure: <Preparation of Emphysema Mice and Evaluation of Drug Efficacy>
Emphysema mice were prepared in accordance with the following procedures described and used for evaluation of drug efficacy.
Under anesthesia by pentobarbital or isoflurane administration, female BALB/c mice were intratracheally administered with swine pancreatic elastase to prepare (day 0) emphysema models.
Control mice were fed with a food containing bexarotene as an existing RXR full agonist.
On Days 4 and 14, the mice underwent tracheotomy again under anesthesia by pentobarbital or xylazine-ketamine administration, followed by insertion of an endotracheal tube, and static lung compliance was measured using a respiratory function measuring equipment ([…], SIREQ Inc.) for evaluating emphysematous alteration. Static lung compliance is an indication of extensibility of a lung tissue, and static lung compliance is increased in emphysema which is a disease associated with tissue destruction in an alveolar region.
After the procedure 3, the mice were euthanized by exsanguination. After bronchoalveolar lavage, a lung tissue was removed for evaluating emphysema.
The data obtained was analyzed by Anova significance test, in which p<0.05 to an untreated non-emphysema group was indicated by “*”. Furthermore, P<0.05 to an untreated emphysema group was indicated by “#”.

[3] = emphysema model mice, 4 days after elastase administration, compared with drug non-administration group

SMILES	increase in triglyceride [1]	IL-5 in supernatant of bronchoalveolar lavage fluid ([2]; ELISA)	IL-13 in supernatant of bronchoalveolar lavage fluid ([2]; ELISA)	inflammatory cell infiltration in a local site of the airway, histopathological investigation of the lung tissue ([2]; HE staining)	eosinophil number in cell fraction of bronchoalveolar lavage fluid [2]	lymphocyte number in cell fraction of bronchoalveolar lavage fluid [2]	total cell number in cell fraction of bronchoalveolar lavage fluid [2]	static lung compliance (emphysema model mice; emphysema model mice fed food containing compound from Day -4, measured Days 4 and 14, compared with the untreated group)	macrophages in cell fraction of bronchoalveolar lavage fluid (emphysema model mice; [3])	total cell number in cell fraction of bronchoalveolar lavage fluid (emphysema model mice; [3])	neutrophil number in cell fraction of bronchoalveolar lavage fluid (emphysema model mice; emphysema model mice, 4 days after elastase administration, compared with the untreated group)	effect on bronchoalveolar lavage cell numbers compared with the RXR full agonist bexarotene (emphysema model mice; emphysema model mice, 4 days after elastase administration, total cell number and macrophages)	average interalveolar distance in lung tissue (emphysematous alteration) (emphysema model mice; emphysema model mice, formalin-fixed, HE-stained lung tissue, compared with the untreated group)	anti-inflammatory effect (emphysema model mice; emphysema model or bronchial asthma model, repeated oral administration (summary statement))
CCN(c1ccc(C(C)C)c(OCC(C)C)c1)c1ccc(C(=O)O)cn1 [NEt-3IB]	reduces increase in triglyceride	–	–	–	–	–	–	–	–	–	–	–	–	–
CCN(c1ccc(OCC(C)C)c(C(C)C)c1)c1ccc(C(=O)O)cn1 [NEt-4IB]	–	inhibition	inhibition	improvement in inflammatory cell infiltration	reduction	reduction	reduction	significant improvement	significantly reduced	significantly reduced	reduction	remarkably higher	improvement in emphysematous alteration	significant anti-inflammatory effect
